IC50 and melting point data for eight compounds are collected here from patent publication US7034027B2, “Fused heterocyclic derivatives as phosphodiesterase inhibitors” (Lilly Icos LLC, priority 2000, dated 2006).

For one data set, the target named is T1, human recombinant PDE5 (Homo sapiens, UniProt O76074).
T1 construct: host or cells: Saccharomyces cerevisiae BJ2-54 (exemplary method)
The data set can be described thus: Inhibitory effect on cGMP-PDE (PDE5 IC50, one-step assay). As to conditions: in vitro. In kind it is biochemical. The procedure: The compounds of structural formula (I) were tested for an ability to inhibit PDE5. The ability of a compound to inhibit PDE5 activity is related to the IC50 value for the compound, i.e., the concentration of inhibitor required for 50% inhibition of enzyme activity. The IC50 value for compounds of structural formula (I) were determined using recombinant human PDE5.
cGMP-PDE activity of compounds of the present invention was measured using a one-step assay adapted from Wells et al., Biochim. Biophys. Acta, 384, 430 (1975). The reaction medium contained 50 mM Tris-HCl, pH 7.5, 5 mM magnesium acetate, 250 μg/ml 5′-Nucleotidase, 1 mM EGTA, and 0.15 μM 8-[H^3]-cGMP. Unless otherwise indicated, the enzyme used was a human recombinant PDE5 (ICOS Corp., Bothell, Wash.).
Compounds of the invention were dissolved in DMSO finally present at 2% in the assay.

As to `CC(C)(C)OC(=O)CC[C@@H]1NC(=O)[C@H]2Cc3c([nH]c4ccccc34)[C@@H](c3ccc4c(c3)OCO4)N2C1=O` [Example 5], the melting point fell in the range of 222 to 227 °C. Further, on human recombinant PDE5, the 50% inhibitory concentration (IC50) was 0.6 nM.

The compound `NC(=O)CC[C@@H]1NC(=O)[C@H]2Cc3c([nH]c4ccccc34)[C@@H](c3ccc4c(c3)OCO4)N2C1=O` [Example 2, 3-((3S,6R,12aR)-6-Benzo[1,3]dioxol-5-yl-1,4-dioxo-1,2,3,4,6,7,12,12a-octahydropyrazino[1′,2′:1,6]-pyrido[3,4-b]indo-3-yl)propionamide] came in with a melting point of 78 to 82 °C. In addition, the IC50 at human recombinant PDE5 is 2.2 nM.

Regarding `CC(C)OC(=O)CC[C@@H]1NC(=O)[C@H]2Cc3c([nH]c4ccccc34)[C@@H](c3ccc4c(c3)OCO4)N2C1=O` [Example 7, 3-((3S,6R,12aR)-6-Benzo[1,3]dioxol-5-yl-1,4-dioxo-1,2,3,4,6,7,12,12a-octahydropyrazino[1′,2′:1,6]pyrido[3,4-b]indol-3-yl)-propionic acid isopropyl ester], at human recombinant PDE5, the IC50 was 0.2 nM.

As to `O=C1N[C@H](CO)C(=O)N2[C@H](c3ccc4c(c3)OCO4)c3[nH]c4ccccc4c3C[C@H]12` [Example 8, (3R,6R,12aR)-6-Benzo[1,3]dioxo-5-yl-3-hydroxymethyl-2,3,6,7,12,12a-hexahydropyrazino[1′,2′:1,;6]pyrido[3,4-b]indole-1,4-dione], the melting point was in the range of 194 to 200 °C. The IC50 at human recombinant PDE5 was determined as 28 nM.

`O=C1NNC(=O)N2[C@H](c3ccc4c(c3)OCO4)c3[nH]c4ccccc4c3C[C@H]12` [Example 3, (5aR,10R)-10-Benzo[1,3]dioxol-5-yl-5,5a,7,8,10,11-hexahydro-7,8,9a,11-tetraazabenzo[b]fluorene-6,9-dione]: the melting point was in the range of 188 to 194 °C. For the same compound, at human recombinant PDE5, the IC50 was determined as 113 nM.

Turning to `CN1CCC(=O)N2[C@H](c3ccc4c(c3)OCO4)c3[nH]c4ccccc4c3C[C@H]2C1=O` [Example 4, (5aS,11R)-11-Benzo[1,3]dioxol-5-yl-7-methyl-5,5a,8,9,11,12-hexahydro-7H-7,10a,12-triaza-cyclohepta[b]fluorene-6,10-dione], the melting point lay within 179 to 182 °C. Moreover, on human recombinant PDE5, the IC50 came out at 593 nM.

In the case of `O=C(O)CC[C@@H]1NC(=O)[C@H]2Cc3c([nH]c4ccccc34)[C@@H](c3ccc4c(c3)OCO4)N2C1=O` [Example 6, 3-((3S,6R,12aR)-6-Benzo[1,3]dioxol-5-yl-1,4-dioxo-1,2,3,4,6,7,12,12a-octahydropyrazino[1′,2′:1,6]pyrido[3,4-b]indole-3-yl)propionic acid], at human recombinant PDE5, the IC50 is 1 nM.

In the case of `CN1C(=O)[C@H]2Cc3c([nH]c4ccccc34)C(c3ccc4c(c3)OCO4)N2C(=O)C1(C)C` (mixture of isomers) [Example 1, (12a,R)-6-Benzo[1,3]dioxol-5-yl,2,3,3-trimethyl-2,3,6,7,12,12a-hexahydropyrazino[1′,2′:1,6]-pyrido[3,4-b]indole-1,4-dione], the melting point is 225 to 235 °C. In addition, the IC50 at human recombinant PDE5 was determined as 161 nM.

For orientation: IC50 means the concentration needed to halve the response being measured. What is called melting point is the temperature of the solid-liquid transition.
